{
  "source": "paper PMC5513037",
  "about": "“Examining the influence of specificity ligands and ATP-competitive ligands on the overall effectiveness of bivalent kinase inhibitors” (Proteome Science, 2017)",
  "assay_in_all_cases": "KAM-matrix competition in K562 lysate;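 as to 0.001 uM KAM: median log10 fold change of treatment over DMSO control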;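 as to 0.01 uM KAM: median log10 fold change of treatment over DMSO control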;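 as to 0.1 uM KAM: median log10 fold change of treatment over DMSO control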;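 as to 1 uM KAM: median log10 fold change of treatment over DMSO control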;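 as to 10 uM KAM: median log10 fold change of treatment over DMSO control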",
  "assay_type_in_all_cases": "binding",
  "key": {"JAK3": {"biological_target": "T1, JAK3 (Homo sapiens, UniProt P52333)", "T1 construct": "endogenous in cells; host or cells: K562", "T1 sequence (P52333 1-1124)": "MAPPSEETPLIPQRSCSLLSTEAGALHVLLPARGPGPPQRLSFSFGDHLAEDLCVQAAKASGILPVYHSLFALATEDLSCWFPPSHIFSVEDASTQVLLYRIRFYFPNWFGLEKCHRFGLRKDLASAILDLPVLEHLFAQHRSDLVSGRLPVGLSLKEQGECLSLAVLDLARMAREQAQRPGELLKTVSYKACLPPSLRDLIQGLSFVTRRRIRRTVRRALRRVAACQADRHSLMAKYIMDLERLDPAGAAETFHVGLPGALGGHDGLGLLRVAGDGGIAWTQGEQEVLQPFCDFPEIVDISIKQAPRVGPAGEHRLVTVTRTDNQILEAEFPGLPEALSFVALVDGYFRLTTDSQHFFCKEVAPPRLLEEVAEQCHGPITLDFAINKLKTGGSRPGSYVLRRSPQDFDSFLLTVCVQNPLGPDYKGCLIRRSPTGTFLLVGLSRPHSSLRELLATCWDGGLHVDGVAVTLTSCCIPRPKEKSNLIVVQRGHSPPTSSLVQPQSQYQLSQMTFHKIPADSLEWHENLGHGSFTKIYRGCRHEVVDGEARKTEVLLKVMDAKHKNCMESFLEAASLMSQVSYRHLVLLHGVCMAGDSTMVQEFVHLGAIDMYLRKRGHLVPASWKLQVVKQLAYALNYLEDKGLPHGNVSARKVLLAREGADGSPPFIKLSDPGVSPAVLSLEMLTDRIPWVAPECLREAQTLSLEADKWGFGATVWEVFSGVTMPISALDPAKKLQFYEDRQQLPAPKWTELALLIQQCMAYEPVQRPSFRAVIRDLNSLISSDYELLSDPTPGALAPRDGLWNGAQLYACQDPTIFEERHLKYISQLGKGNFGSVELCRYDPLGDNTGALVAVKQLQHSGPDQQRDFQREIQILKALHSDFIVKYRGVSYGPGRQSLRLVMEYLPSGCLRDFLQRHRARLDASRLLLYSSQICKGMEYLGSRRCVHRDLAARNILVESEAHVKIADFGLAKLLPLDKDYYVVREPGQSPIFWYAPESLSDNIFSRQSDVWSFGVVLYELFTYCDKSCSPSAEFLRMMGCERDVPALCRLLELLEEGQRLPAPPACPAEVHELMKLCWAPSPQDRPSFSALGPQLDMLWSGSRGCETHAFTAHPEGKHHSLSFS", "description": "(§1) Supplement 12953_2017_125_MOESM1_ESM.zip/MS_Supp Info.xlsx, sheet \"KAM\" | column: 10 uM KAM; 1 uM KAM; 0.1 uM KAM; 0.01 uM KAM; 0.001 uM KAM; RB50"}, "RIOK2": {"biological_target": "T2, RIOK2 (Homo sapiens, UniProt Q9BVS4)", "T2 construct": "endogenous in cells; host or cells: K562", "T2 sequence (Q9BVS4 whole entry)": "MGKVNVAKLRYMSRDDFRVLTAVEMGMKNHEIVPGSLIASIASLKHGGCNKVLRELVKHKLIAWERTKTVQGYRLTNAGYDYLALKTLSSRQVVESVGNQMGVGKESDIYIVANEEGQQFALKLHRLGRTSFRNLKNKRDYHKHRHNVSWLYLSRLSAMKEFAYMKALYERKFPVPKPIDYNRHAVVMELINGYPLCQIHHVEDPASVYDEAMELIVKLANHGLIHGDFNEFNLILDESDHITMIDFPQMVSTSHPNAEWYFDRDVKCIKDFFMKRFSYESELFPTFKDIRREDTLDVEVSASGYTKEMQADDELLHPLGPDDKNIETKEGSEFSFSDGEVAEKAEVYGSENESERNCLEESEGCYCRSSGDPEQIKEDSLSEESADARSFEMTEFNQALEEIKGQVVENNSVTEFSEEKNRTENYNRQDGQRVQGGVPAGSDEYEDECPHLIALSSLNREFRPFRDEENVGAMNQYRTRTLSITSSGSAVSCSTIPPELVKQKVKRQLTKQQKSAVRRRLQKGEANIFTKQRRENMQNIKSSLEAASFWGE", "description": "as §1"}, "TYK2": {"biological_target": "T3, TYK2 (Homo sapiens, UniProt P29597)", "T3 construct": "endogenous in cells; host or cells: K562", "T3 sequence (P29597 whole entry)": "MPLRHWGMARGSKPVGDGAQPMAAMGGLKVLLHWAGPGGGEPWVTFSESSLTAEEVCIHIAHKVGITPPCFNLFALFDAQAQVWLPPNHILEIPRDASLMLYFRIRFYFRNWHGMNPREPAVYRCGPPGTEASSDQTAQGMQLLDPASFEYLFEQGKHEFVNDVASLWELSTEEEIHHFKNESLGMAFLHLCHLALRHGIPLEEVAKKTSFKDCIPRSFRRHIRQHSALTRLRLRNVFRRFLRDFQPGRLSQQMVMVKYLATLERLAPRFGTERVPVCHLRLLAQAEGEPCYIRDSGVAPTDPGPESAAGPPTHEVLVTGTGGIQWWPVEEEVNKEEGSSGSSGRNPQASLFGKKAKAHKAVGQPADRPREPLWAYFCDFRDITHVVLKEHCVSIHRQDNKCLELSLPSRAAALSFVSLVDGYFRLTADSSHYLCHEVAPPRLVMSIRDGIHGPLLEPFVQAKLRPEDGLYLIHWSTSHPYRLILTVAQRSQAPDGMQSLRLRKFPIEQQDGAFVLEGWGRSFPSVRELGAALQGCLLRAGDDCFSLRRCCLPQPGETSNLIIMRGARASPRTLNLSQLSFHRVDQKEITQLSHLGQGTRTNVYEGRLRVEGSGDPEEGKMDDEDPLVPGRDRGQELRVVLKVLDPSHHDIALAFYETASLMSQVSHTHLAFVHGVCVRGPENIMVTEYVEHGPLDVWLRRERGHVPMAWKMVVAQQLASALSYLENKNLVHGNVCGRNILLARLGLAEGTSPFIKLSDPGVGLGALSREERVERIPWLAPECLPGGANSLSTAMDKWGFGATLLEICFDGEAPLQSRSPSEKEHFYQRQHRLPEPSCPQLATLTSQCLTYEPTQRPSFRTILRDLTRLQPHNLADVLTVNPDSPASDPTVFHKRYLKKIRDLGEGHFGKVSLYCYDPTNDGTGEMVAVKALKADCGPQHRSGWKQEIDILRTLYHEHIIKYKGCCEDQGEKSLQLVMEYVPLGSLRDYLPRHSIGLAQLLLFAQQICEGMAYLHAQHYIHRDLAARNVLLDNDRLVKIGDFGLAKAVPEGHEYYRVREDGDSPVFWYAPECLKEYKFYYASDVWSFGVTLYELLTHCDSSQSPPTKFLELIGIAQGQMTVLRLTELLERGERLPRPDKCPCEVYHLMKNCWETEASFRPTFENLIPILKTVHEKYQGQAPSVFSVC", "description": "as §1"}, "ROCK2": {"biological_target": "T4, ROCK2 (Homo sapiens, UniProt O75116)", "T4 construct": "endogenous in cells; host or cells: K562", "T4 sequence (O75116 whole entry)": "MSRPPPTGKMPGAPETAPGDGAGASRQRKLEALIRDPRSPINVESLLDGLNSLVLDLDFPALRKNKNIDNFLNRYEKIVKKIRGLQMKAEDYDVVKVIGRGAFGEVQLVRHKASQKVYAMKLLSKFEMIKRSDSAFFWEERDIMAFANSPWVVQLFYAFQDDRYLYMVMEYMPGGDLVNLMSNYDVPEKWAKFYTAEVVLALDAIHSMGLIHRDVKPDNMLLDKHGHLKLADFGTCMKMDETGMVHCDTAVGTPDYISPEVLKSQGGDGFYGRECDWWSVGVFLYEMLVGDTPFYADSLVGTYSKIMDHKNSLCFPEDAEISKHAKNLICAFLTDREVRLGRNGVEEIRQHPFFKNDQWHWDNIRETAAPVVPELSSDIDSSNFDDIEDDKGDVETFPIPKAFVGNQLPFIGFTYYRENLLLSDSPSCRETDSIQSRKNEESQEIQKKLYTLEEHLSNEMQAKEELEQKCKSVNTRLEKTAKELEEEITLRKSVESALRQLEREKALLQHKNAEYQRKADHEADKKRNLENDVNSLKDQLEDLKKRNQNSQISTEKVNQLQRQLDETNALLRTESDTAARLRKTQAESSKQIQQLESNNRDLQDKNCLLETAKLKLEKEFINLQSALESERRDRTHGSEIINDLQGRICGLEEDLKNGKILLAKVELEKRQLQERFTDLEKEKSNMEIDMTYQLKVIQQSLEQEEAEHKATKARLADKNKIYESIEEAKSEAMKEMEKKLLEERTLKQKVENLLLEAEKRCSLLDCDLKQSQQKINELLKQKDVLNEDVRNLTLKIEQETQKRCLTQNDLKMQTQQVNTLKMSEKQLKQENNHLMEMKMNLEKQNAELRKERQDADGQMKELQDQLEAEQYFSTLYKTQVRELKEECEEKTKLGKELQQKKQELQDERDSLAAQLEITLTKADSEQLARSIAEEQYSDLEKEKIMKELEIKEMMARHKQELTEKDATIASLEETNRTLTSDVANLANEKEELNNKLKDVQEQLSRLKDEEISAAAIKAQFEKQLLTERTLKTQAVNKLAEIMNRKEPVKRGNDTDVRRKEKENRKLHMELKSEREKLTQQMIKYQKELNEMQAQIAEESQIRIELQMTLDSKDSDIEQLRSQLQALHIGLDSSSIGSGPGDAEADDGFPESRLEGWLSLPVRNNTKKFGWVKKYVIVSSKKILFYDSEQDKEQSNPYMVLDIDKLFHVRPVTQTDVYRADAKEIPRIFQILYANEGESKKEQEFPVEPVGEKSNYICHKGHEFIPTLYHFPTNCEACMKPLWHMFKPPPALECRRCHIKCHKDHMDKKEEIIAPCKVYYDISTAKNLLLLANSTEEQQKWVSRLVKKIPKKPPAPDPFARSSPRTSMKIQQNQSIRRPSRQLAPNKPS", "description": "as §1"}, "TLK1": {"biological_target": "T5, TLK1 (Homo sapiens, UniProt Q9UKI8)", "T5 construct": "endogenous in cells; host or cells: K562 cells (combined S0.8 and P0.8 lysate)", "T5 sequence (Q9UKI8 1-766)": "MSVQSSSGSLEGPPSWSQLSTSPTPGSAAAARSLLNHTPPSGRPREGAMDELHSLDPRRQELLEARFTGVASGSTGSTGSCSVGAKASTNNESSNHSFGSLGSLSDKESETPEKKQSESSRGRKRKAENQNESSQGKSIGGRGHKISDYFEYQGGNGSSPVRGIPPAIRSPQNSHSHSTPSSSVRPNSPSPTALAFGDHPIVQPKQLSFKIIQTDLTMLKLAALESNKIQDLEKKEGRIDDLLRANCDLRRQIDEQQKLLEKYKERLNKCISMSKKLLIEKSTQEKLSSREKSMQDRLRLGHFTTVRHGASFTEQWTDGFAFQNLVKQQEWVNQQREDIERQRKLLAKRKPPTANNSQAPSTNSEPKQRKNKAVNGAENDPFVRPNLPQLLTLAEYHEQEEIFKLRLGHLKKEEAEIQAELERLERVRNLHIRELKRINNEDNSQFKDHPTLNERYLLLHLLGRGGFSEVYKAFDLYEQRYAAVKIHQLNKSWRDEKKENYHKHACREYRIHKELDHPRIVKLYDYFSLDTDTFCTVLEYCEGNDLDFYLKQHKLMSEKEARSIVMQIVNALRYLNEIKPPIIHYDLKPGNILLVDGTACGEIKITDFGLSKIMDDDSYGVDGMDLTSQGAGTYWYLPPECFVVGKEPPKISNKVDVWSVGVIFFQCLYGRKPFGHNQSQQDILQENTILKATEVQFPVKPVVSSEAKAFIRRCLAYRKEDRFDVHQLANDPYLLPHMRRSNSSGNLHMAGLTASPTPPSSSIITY", "description": "as §1"}, "[1]": {"conditions": "KAM 0.001-10 uM, read-out: RB50 (the source's name)"}, "[2]": {"conditions": "read-out: RB50 (the source's name)"}},
  "data": [
    {"smiles": "N#CCc1ccc(Nc2nc(NCCCN)cc(Nc3cc(C4CC4)[nH]n3)n2)cc1", "note": "[KAM]", "values": [
      {"measurement": "IC50", "setting": "JAK3; [1]", "value": "> 10", "unit": "µM"},
      {"measurement": "0.001 uM KAM", "setting": "JAK3; relative to 0 uM KAM = 0", "value": -0.04271},
      {"measurement": "0.01 uM KAM", "setting": "JAK3; relative to 0 uM KAM = 0", "value": -0.0544},
      {"measurement": "0.1 uM KAM", "setting": "JAK3; relative to 0 uM KAM = 0", "value": -0.1188},
      {"measurement": "1 uM KAM", "setting": "JAK3; relative to 0 uM KAM = 0", "value": -0.2952},
      {"measurement": "10 uM KAM", "setting": "JAK3; relative to 0 uM KAM = 0", "value": -0.1976},
      {"measurement": "median Log10 fold change", "setting": "RIOK2; 0.001 uM KAM", "value": -0.01457},
      {"measurement": "median Log10 fold change", "setting": "RIOK2; 0.01 uM KAM", "value": -0.03291},
      {"measurement": "median Log10 fold change", "setting": "RIOK2; 0.1 uM KAM", "value": -0.138},
      {"measurement": "median Log10 fold change", "setting": "RIOK2; 1 uM KAM", "value": -0.3574},
      {"measurement": "median Log10 fold change", "setting": "RIOK2; 10 uM KAM", "value": -0.5027},
      {"measurement": "IC50", "setting": "RIOK2; [2]", "value": 0.774, "unit": "µM"},
      {"measurement": "median Log10 fold change", "setting": "TYK2; 0.001 uM KAM", "value": -0.01748},
      {"measurement": "median Log10 fold change", "setting": "TYK2; 0.01 uM KAM", "value": -0.01468},
      {"measurement": "median Log10 fold change", "setting": "TYK2; 0.1 uM KAM", "value": -0.1723},
      {"measurement": "median Log10 fold change", "setting": "TYK2; 1 uM KAM", "value": -0.4058},
      {"measurement": "median Log10 fold change", "setting": "TYK2; 10 uM KAM", "value": -0.4958},
      {"measurement": "IC50", "setting": "TYK2; [2]", "value": 0.536, "unit": "µM"},
      {"measurement": "IC50", "setting": "ROCK2; [1]", "value": "> 10", "unit": "µM"},
      {"measurement": "0.001 uM KAM", "setting": "ROCK2; relative to 0 uM KAM = 0", "value": 0.005547},
      {"measurement": "0.01 uM KAM", "setting": "ROCK2; relative to 0 uM KAM = 0", "value": 0.004918},
      {"measurement": "0.1 uM KAM", "setting": "ROCK2; relative to 0 uM KAM = 0", "value": -0.08686},
      {"measurement": "1 uM KAM", "setting": "ROCK2; relative to 0 uM KAM = 0", "value": -0.1587},
      {"measurement": "10 uM KAM", "setting": "ROCK2; relative to 0 uM KAM = 0", "value": -0.127},
      {"measurement": "IC50", "setting": "TLK1; [1]", "value": "> 10", "unit": "µM"},
      {"measurement": "0.001 uM KAM", "setting": "TLK1; relative to 0 uM KAM = 0", "value": -0.0133},
      {"measurement": "0.01 uM KAM", "setting": "TLK1; relative to 0 uM KAM = 0", "value": 0.001518},
      {"measurement": "0.1 uM KAM", "setting": "TLK1; relative to 0 uM KAM = 0", "value": -0.1562},
      {"measurement": "1 uM KAM", "setting": "TLK1; relative to 0 uM KAM = 0", "value": -0.3373},
      {"measurement": "10 uM KAM", "setting": "TLK1; relative to 0 uM KAM = 0", "value": -0.1561}
    ]}
  ]
}
